Assay results published in ChEMBL document CHEMBL1154025, “Design and synthesis of BACE-1 inhibitors utilizing a tertiary hydroxyl motif as the transition state mimic” (Bioorg Med Chem Lett, 2009).
pIC50, pKi: −log10 of the molar value.

Key:
[1] = target: Beta-secretase 1 (Homo sapiens, UniProt P56817); experiment: Inhibition of human BACE1 expressed in Escherichia coli BL21(DE3) using Swedish mutant sequence Eu-EVNLDAEFK-Quencher substrate by homogeneous time resolved fluorescence assay
[2] = target: Cathepsin D (Homo sapiens, UniProt P07339); experiment: Inhibition of human liver cathepsin D
[3] = Permeability across human Caco-2 cell membrane; assay type: ADME, cell-based

Sequence of Beta-secretase 1 (P56817 whole entry): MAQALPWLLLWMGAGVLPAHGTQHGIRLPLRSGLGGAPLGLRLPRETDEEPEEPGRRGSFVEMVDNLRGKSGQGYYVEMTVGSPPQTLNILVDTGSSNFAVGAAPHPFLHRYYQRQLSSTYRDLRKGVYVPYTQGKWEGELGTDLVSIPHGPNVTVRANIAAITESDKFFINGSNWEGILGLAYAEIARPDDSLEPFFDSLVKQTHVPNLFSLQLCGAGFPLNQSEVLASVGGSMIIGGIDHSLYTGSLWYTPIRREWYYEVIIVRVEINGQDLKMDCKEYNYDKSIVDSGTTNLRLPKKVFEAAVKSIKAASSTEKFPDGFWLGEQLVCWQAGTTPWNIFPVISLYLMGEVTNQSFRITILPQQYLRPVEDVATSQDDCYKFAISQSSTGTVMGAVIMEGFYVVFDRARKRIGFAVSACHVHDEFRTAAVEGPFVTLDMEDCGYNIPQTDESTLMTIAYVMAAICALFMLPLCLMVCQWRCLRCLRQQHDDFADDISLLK
Sequence of Cathepsin D (P07339 65-162 limits assumed): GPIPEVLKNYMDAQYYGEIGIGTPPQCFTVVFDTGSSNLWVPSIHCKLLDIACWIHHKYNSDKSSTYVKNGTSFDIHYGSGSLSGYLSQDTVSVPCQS
Sequence of Cathepsin D (P07339 169-412 limits assumed): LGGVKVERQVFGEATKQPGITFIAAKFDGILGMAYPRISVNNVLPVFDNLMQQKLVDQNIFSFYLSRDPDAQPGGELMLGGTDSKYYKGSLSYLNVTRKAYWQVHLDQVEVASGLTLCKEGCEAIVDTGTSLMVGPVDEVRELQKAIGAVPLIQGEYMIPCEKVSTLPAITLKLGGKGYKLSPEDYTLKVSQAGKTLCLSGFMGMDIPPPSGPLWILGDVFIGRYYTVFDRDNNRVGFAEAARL

| SMILES | pIC50 [1] | pKi [2] | Papp [3] [×10⁻⁶ cm/s] |
| --- | --- | --- | --- |
| CC(C)[C@H](NC(=O)CCC(O)(CCc1ccccc1)C(=O)Nc1cc(C(=O)N[C@H](C)c2ccc(F)cc2)cc(N(C)S(C)(=O)=O)c1)C(=O)NCc1ccccc1 (some centres undefined) | < 5.00 |  |  |
| C[C@@H](NC(=O)c1cc(NC(=O)CC[C@](O)(Cc2ccccc2)C(=O)N[C@H]2c3ccccc3C[C@H]2O)cc(N(C)S(C)(=O)=O)c1)c1ccccc1 | 5.60 |  |  |
| CC(C)[C@H](NC(=O)CCC(O)(Cc1ccccc1)C(=O)Nc1cc(C(=O)N[C@H](C)c2ccc(F)cc2)cc(N(C)S(C)(=O)=O)c1)C(=O)NCc1ccc(C(=O)O)cc1 (some centres undefined) | < 5.00 |  |  |
| C[C@@H](NC(=O)c1cc(NC(=O)CC[C@@](O)(Cc2ccccc2)C(=O)N[C@H]2c3ccccc3C[C@H]2O)cc(N(C)S(C)(=O)=O)c1)c1ccccc1 | 5.34 |  |  |
| CC(C)[C@H](NC(=O)C(O)(CCC(=O)Nc1cc(C(=O)N[C@H](C)c2ccccc2)cc(N(C)S(C)(=O)=O)c1)CCc1ccccc1)C(=O)NCc1ccccc1 (some centres undefined) | 6.35 |  |  |
| CC(C)[C@H](NC(=O)CCC(O)(Cc1ccccc1)C(=O)Nc1cc(C(=O)N[C@H](C)c2ccc(F)cc2)cc(N(C)S(C)(=O)=O)c1)C(=O)Nc1ccc(C(=O)O)cc1 (some centres undefined) | < 5.00 |  |  |
| CC(C)[C@H](NC(=O)CCC(O)(Cc1ccccc1)C(=O)Nc1cc(C(=O)N[C@H](C)c2ccc(F)cc2)cc(N(C)S(C)(=O)=O)c1)C(=O)NCc1ccccc1 (some centres undefined) | 5.23 |  |  |
| COC(=O)c1ccc(NC(=O)[C@@H](NC(=O)CCC(O)(Cc2ccccc2)C(=O)Nc2cc(C(=O)N[C@H](C)c3ccc(F)cc3)cc(N(C)S(C)(=O)=O)c2)C(C)C)cc1 (some centres undefined) | 5.40 |  |  |
| COC(=O)c1ccc(CNC(=O)[C@@H](NC(=O)CCC(O)(Cc2ccccc2)C(=O)Nc2cc(C(=O)N[C@H](C)c3ccc(F)cc3)cc(N(C)S(C)(=O)=O)c2)C(C)C)cc1 (some centres undefined) | < 5.00 |  |  |
| CC(C)[C@H](NC(=O)CCC(O)(CCc1ccccc1)C(=O)Nc1cc(C(=O)N[C@H](C)c2ccccc2)cc(N(C)S(C)(=O)=O)c1)C(=O)NCc1ccccc1 (some centres undefined) | 5.25 |  |  |
| C[C@@H](NC(=O)c1cc(NC(=O)C(O)(CCC(=O)N[C@H]2c3ccccc3C[C@H]2O)Cc2ccccc2)cc(N(C)S(C)(=O)=O)c1)c1ccc(F)cc1 (some centres undefined) | < 5.00 |  |  |
| CC(C)[C@H](NC(=O)C(O)(CCC(=O)Nc1cc(C(=O)N[C@H](C)c2ccccc2)cc(N(C)S(C)(=O)=O)c1)CCc1ccccc1)C(=O)Nc1ccccc1 (single isomer, unassigned) | 6.49 |  |  |
| C[C@@H](NC(=O)c1cc(NC(=O)CCC(O)(CCc2ccccc2)C(=O)N[C@H]2c3ccccc3C[C@H]2O)cc(N(C)S(C)(=O)=O)c1)c1ccccc1 (stereo in doubt; 36-(A)) | 6.24 |  |  |
| C[C@@H](NC(=O)c1cc(NC(=O)CCC(O)(CCc2ccccc2)C(=O)N[C@H]2c3ccccc3C[C@H]2O)cc(N(C)S(C)(=O)=O)c1)c1ccccc1 (stereo in doubt; 37-(B)) | 6.60 | < 5.30 | < 1 |
| CC(C)[C@H](NC(=O)C(O)(CCC(=O)Nc1cc(C(=O)N[C@H](C)c2ccccc2)cc(N(C)S(C)(=O)=O)c1)CCc1ccccc1)C(=O)Nc1ccccc1 (stereo in doubt; 39-(A)) | 6.64 | < 5.30 | 1.2 |
